Source: US10655161B2, “Diagnostic and prognostic assays based on circulating tyrosine kinase activity” (Quest Diagnostics Investments Incorporated, priority 2010, dated 2020)

Test system: cTK activity in plasma from a CML patient harboring the T315I mutation
Experiment: Ex vivo plasma cTK activity assay, plasma from a multidrug-resistant CML patient with T315I mutation
Assay type: biochemical, human
Settings: 1-5 μM imatinib (FIG. 2A)
Procedure: After incubation at 37° C. for 30 min, the PY20-HRP solution was replaced by HRP substrate solution (TMBZ).

Cc1ccc(NC(=O)c2ccc(CN3CCN(C)CC3)cc2)cc1Nc1nccc(-c2cccnc2)n1 [Imatinib, imatinib]
Inhibition of cTK activity: little inhibition
